From ChEMBL document CHEMBL5241069, “A key review on oxadiazole analogs as potential methicillin-resistant Staphylococcus aureus (MRSA) activity: Structure-activity relationship studies” (Eur J Med Chem, 2021)
In brackets after ≈: the same amount, converted by molar mass.

What was measured:
Staphylococcus aureus [1] = experiment: Potency index, ratio of vancomycin MIC to test compound MIC for antibacterial activity against methicillin resistant Staphylococcus aureus ATCC 43866 assessed as inhibition of biofilm formation incubated for 18 to 24 hrs by tissue culture plate method; format: functional; details: time 18-24 hrs
Staphylococcus aureus [2] = experiment: Antibiofilm activity against methicillin resistant Staphylococcus aureus ATCC 43866 assessed as inhibition of biofilm formation incubated for 18 to 24 hrs by tissue culture plate method; format: functional; details: time 18-24 hrs
Staphylococcus aureus [3] = experiment: Antimicrobial activity against methicillin resistant Staphylococcus aureus ATCC 25923 assessed as inhibition of bacterial growth by agar diffusion cup plate method; format: functional
Staphylococcus aureus [4] = experiment: Antibacterial activity against methicillin resistant Staphylococcus aureus 181 assessed as inhibition of bacterial growth; format: functional
Staphylococcus aureus [5] = experiment: Antibacterial activity against methicillin resistant Staphylococcus aureus 747 assessed as inhibition of bacterial growth; format: functional
Staphylococcus aureus [6] = experiment: Potency index, ratio of cefepime MIC to test compound MIC for antibacterial activity against methicillin resistant Staphylococcus aureus 42 assessed as inhibition of bacterial growth; format: functional
Staphylococcus aureus [7] = experiment: Antibacterial activity against methicillin resistant Staphylococcus aureus 42 assessed as inhibition of bacterial growth; format: functional
Staphylococcus aureus [8] = experiment: Antibacterial activity against methicillin resistant Staphylococcus aureus 128 assessed as inhibition of bacterial growth; format: functional
Staphylococcus aureus [9] = experiment: Antimicrobial activity against methicillin resistant Staphylococcus aureus 3 assessed as inhibition of bacterial growth incubated for 16 to 20 hrs by CLSI protocol based Muller-Hinton broth method; format: functional; details: time 16-20 hrs
[10] = Cytotoxicity against rat NRK-52E cells assessed as inhibition of cell growth incubated for 24 hrs by CCK-8 assay; format: toxicity, cell-based
Staphylococcus aureus [11] = experiment: Antimicrobial activity against methicillin resistant Staphylococcus aureus 2 assessed as inhibition of bacterial growth incubated for 16 to 20 hrs by CLSI protocol based Muller-Hinton broth method; format: functional; details: time 16-20 hrs
Staphylococcus aureus [12] = experiment: Antimicrobial activity against methicillin resistant Staphylococcus aureus 1 assessed as inhibition of bacterial growth incubated for 16 to 20 hrs by CLSI protocol based Muller-Hinton broth method; format: functional; details: time 16-20 hrs
Staphylococcus aureus [13] = experiment: Antibacterial activity against methicillin resistant Staphylococcus aureus USA300 assessed as inhibition of bacterial growth incubated for 16 to 20 hrs by CLSI protocol based Mueller-Hinton broth method; format: functional; details: time 16-20 hrs
[14] = Cytotoxicity against human HepG2 cells assessed as inhibition of cell growth incubated for 24 hrs by WST-1 assay; format: toxicity, cell-based; details: read-out: LD50
Staphylococcus aureus [15] = experiment: Antibacterial activity against methicillin resistant Staphylococcus aureus MW2 assessed as inhibition of bacterial growth incubated for 16 to 20 hrs by CLSI protocol based Mueller-Hinton broth method; format: functional; details: time 16-20 hrs
Staphylococcus aureus [16] = experiment: Antibacterial activity against methicillin resistant Staphylococcus aureus incubated for 24 hrs by broth microdilution method; format: functional

Q: Which results are given for `Cn1c(-c2nnc(-c3ccc(Cl)cc3Cl)o2)cc(Br)c1Br`?
A: Ratio (Staphylococcus aureus [1]): 4; MIC (Staphylococcus aureus [2]): 0.78 µg/mL (≈ 1.73 µM)

Q: With `Cc1nnc(-c2ccc(O)cc2)o1` as the compound, how does the MIC (Staphylococcus aureus [3]) read?
A: Its MIC is 25 µg/mL (≈ 142 µM).

Q: With `O=c1c(Br)cnc2onc(-c3ccc(F)cc3F)n12` as the compound, how does the MIC (Staphylococcus aureus [4]) read?
A: The MIC was 29.9 µg/mL (≈ 91.1 µM).

Q: And the MIC (Staphylococcus aureus [5])?
A: Its MIC is 29.9 µg/mL (≈ 91.1 µM).

Q: What about the Ratio (Staphylococcus aureus [6]) of the same compound?
A: The Ratio was 3.

Q: And the MIC (Staphylococcus aureus [7])?
A: The MIC was 12.4 µg/mL (≈ 37.8 µM).

Q: And the MIC (Staphylococcus aureus [8])?
A: Its MIC is 17.6 µg/mL (≈ 53.6 µM).

Q: Which MIC (Staphylococcus aureus [9]) does the source give for `CCn1cc(C(=O)O)c(=O)c2cc(F)c(N3CCN(Cc4nnc(-c5cccc(OC)c5)o4)CC3)cc21` here?
A: Its MIC is 1 µg/mL (≈ 1.97 µM).

Q: What about the IC50 at 24 h [10] of the same compound?
A: The IC50 at 24 h was > 200 µg/mL.

Q: And the MIC (Staphylococcus aureus [11])?
A: The MIC was 0.25 µg/mL (≈ 0.493 µM).

Q: And the MIC (Staphylococcus aureus [12])?
A: The MIC was 0.5 µg/mL (≈ 0.985 µM).

Q: With `O=C(Nc1nnc(-c2ccc3c(c2)CCCC3)o1)C1CC1` as the compound, how does the MBC (Staphylococcus aureus [13]) read?
A: Its MBC is 16 µg/mL (≈ 56.5 µM).

Q: And the CC50 at 24 h [14]?
A: Its CC50 at 24 h is > 32 µg/mL.

Q: And the MBC (Staphylococcus aureus [15])?
A: Its MBC is 16 µg/mL (≈ 56.5 µM).

Q: Which MIC (Staphylococcus aureus [3]) does the source give for `COc1ccc(-c2nnc(C)o2)cc1` here?
A: Its MIC is 25 µg/mL (≈ 131 µM).

Q: With `Nc1scc(-c2ccc(F)cc2)c1-c1nnc(S)o1` as the compound, how does the MIC (Staphylococcus aureus [16]) read?
A: Its MIC is 8 µg/mL (≈ 27.3 µM).
